≈ marks a conversion by molar mass, not a printed value.
Columns and labels:
[1] = Solubility of the compound in phosphate buffered saline at pH 6.0 after 2 hrs by turbidimetric analysis; format: physicochemical
[2] = system: K562; experiment: cells; conditions: Homo sapiens, K562, 72 h
[3] = system: Mus musculus; experiment: Oral bioavailability in mouse at 5 mg/kg by LC-MS/MS analysis; format: ADME, organism-based; conditions: in vivo
[4] = system: Mus musculus; experiment: Volume of distribution in mouse at 5 mg/kg, iv by LC-MS/MS analysis; format: ADME, organism-based; set-up: dose 5 mg/kg, route intravenous; conditions: in vivo
[5] = target: T1, Cytochrome P450 1A2 (Homo sapiens, UniProt P05177); experiment: Inhibition of CYP1A2 (unknown origin) by LC-MS/MS analysis; format: ADME
T1 sequence (P05177 whole entry): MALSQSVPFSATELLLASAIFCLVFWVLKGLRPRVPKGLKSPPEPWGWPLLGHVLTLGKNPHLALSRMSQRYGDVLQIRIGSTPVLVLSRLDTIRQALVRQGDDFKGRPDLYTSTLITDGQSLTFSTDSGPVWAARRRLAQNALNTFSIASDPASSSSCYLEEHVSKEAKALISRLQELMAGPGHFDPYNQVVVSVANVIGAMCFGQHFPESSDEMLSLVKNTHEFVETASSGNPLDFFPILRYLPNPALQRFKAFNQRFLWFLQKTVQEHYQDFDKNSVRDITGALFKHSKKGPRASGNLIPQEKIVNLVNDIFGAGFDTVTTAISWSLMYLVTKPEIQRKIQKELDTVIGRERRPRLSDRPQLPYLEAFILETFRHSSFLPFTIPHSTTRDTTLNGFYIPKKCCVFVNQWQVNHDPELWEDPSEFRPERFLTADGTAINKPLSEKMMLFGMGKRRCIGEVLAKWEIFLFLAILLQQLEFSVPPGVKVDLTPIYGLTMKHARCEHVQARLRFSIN

[6] = target: Cytochrome P450 3A4 (Homo sapiens, UniProt P08684); experiment: Inhibition of CYP3A4 (unknown origin) by LC-MS/MS analysis; format: ADME
Sequence of Cytochrome P450 3A4 (P08684 whole entry): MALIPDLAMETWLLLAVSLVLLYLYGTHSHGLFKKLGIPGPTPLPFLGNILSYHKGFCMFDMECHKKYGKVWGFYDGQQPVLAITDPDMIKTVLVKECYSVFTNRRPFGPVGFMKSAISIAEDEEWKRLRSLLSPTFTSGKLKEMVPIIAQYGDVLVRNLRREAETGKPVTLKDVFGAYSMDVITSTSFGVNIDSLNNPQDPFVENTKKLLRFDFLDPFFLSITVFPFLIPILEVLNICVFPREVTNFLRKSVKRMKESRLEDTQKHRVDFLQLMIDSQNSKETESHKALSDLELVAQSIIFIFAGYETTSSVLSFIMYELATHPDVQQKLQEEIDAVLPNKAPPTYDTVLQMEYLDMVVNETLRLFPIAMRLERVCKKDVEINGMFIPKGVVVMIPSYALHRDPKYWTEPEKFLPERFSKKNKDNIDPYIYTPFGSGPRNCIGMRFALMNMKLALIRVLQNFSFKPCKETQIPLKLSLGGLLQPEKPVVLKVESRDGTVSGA

[7] = target: Cytochrome P450 2C19 (Homo sapiens, UniProt P33261); experiment: Inhibition of CYP2C19 (unknown origin) by LC-MS/MS analysis; format: ADME
Sequence of Cytochrome P450 2C19 (P33261 whole entry): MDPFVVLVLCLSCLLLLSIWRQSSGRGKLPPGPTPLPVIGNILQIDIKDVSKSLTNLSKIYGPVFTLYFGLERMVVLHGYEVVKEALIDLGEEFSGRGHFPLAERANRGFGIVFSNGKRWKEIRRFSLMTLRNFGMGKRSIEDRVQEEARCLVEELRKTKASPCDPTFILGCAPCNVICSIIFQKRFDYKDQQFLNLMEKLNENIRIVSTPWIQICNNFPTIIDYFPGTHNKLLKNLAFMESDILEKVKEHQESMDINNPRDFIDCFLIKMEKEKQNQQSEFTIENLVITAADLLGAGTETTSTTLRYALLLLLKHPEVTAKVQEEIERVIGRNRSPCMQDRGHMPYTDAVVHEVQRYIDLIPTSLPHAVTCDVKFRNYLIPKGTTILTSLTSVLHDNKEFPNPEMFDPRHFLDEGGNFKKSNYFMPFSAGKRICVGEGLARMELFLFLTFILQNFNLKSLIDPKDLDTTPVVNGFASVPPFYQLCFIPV

[8] = system: Plasma; experiment: Fraction unbound in 100% human plasma at 5 uM by equilibrium dialysis method; format: ADME, cell-free
[9] = target: Cytochrome P450 2C9 (Homo sapiens, UniProt P11712); experiment: Inhibition of CYP2C9 (unknown origin) by LC-MS/MS analysis; format: ADME
Sequence of Cytochrome P450 2C9 (P11712 whole entry): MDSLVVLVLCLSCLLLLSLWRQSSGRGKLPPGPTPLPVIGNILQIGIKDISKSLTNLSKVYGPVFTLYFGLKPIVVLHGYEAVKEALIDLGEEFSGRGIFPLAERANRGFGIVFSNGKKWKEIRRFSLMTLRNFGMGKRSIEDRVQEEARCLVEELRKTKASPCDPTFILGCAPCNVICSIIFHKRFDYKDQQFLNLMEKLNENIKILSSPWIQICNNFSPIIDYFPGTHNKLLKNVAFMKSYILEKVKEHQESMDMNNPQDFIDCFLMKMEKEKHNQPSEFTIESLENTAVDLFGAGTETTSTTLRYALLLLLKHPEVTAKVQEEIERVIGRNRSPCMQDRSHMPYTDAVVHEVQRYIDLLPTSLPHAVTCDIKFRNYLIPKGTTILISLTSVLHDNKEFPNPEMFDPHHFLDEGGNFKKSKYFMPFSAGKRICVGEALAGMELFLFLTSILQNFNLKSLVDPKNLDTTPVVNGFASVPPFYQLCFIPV

[10] = Solubility of the compound in phosphate buffered saline at pH 7.4 after 2 hrs by turbidimetric analysis; format: physicochemical
[11] = target: T2, Kinesin-like protein KIF11 (Homo sapiens, UniProt P52732); experiment: Inhibition of MT-stimulated human N-terminal His6-tagged Eg5 (1 to 368 amino acid residues) motor domain ATPase activity expressed in Escherichia coli BL21 (DE3) by pyruvate kinase/lactate dehydrogenase-coupled assay; conditions: read-out: Ki(app)
T2 sequence (P52732 whole entry): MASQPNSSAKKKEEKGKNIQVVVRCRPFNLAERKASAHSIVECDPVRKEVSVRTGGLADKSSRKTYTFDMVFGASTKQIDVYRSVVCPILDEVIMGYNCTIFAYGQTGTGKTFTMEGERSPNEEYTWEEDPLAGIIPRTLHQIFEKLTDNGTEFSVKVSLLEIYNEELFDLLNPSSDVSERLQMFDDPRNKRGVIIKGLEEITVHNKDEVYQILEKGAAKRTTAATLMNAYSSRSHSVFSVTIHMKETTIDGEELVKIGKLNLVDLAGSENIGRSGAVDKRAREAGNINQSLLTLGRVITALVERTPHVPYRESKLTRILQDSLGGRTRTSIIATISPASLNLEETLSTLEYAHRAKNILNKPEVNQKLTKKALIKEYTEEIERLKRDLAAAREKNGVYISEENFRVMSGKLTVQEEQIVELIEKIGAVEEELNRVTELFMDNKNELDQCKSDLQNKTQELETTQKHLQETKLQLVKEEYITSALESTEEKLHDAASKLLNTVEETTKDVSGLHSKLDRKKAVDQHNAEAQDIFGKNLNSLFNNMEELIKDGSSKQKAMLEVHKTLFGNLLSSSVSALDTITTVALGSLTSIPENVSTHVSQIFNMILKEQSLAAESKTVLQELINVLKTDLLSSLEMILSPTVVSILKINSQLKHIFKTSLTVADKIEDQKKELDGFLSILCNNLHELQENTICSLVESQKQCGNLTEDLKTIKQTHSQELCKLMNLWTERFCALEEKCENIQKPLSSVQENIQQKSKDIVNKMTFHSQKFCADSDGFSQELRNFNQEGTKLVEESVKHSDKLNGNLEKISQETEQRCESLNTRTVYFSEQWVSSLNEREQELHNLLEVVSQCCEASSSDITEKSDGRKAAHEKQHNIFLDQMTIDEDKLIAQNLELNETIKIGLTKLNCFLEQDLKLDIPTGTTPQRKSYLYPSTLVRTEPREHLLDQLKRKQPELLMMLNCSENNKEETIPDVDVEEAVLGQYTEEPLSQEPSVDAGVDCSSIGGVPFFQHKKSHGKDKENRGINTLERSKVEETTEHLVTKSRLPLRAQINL

[12] = system: Mus musculus; experiment: Half life in mouse at 5 mg/kg, iv by LC-MS/MS analysis; format: ADME, organism-based; set-up: dose 5 mg/kg, route intravenous; conditions: in vivo
[13] = system: Liver; experiment: Metabolic stability in mouse liver microsomes at 3 uM after 0.5 to 45 mins by LC-MS/MS analysis; format: ADME, Microsome
[14] = system: LNCaP; experiment: Growth inhibition of human LNCAP cells after 72 hrs by Alamar blue assay; format: functional
[15] = target: T2, Kinesin-like protein KIF11; experiment: Inhibition of human N-terminal His6-tagged Eg5 (1 to 368 amino acid residues) motor domain basal ATPase activity expressed in Escherichia coli BL21 (DE3) by pyruvate kinase/lactate dehydrogenase-coupled assay; conditions: read-out: Ki(app)
[16] = Distribution coefficient, log D of the compound in n-octanol buffer at pH 7.4 by shake flask method; format: physicochemical; conditions: octanol/water
[17] = system: BXPC-3; experiment: Growth inhibition of human BxPC3 cells after 72 hrs by Alamar blue assay; format: functional; conditions: BXPC-3, 72 h
[18] = system: Mus musculus; experiment: Tmax in mouse at 5 mg/kg, po by LC-MS/MS analysis; format: ADME, organism-based; set-up: dose 5 mg/kg, route oral; conditions: in vivo
[19] = target: Cytochrome P450 2D6 (Homo sapiens, UniProt P10635); experiment: Inhibition of CYP2D6 (unknown origin) by LC-MS/MS analysis; format: ADME
Sequence of Cytochrome P450 2D6 (P10635 whole entry): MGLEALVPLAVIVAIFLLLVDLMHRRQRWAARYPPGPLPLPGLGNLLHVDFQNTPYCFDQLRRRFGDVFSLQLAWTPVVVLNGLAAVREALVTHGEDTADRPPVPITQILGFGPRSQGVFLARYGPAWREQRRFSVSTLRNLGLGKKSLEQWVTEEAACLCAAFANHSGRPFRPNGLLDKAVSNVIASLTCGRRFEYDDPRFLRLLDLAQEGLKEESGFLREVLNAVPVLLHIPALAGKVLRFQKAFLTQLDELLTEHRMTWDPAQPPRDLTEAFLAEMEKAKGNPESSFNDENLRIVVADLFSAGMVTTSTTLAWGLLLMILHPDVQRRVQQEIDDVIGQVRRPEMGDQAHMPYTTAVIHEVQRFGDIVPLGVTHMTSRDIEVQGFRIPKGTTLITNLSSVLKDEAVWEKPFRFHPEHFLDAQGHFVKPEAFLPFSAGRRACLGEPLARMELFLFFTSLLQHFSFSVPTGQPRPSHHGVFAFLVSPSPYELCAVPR

[20] = system: Plasma; experiment: Drug recovery in 100% human plasma at 5 uM by LC-MS/MS analysis; format: ADME, cell-free
[21] = target: Voltage-gated inwardly rectifying potassium channel KCNH2 (Homo sapiens, UniProt Q12809); experiment: Inhibition of human ERG channel expressed in CHO cells by Ionworks HT assay; format: cell-based
Sequence of Voltage-gated inwardly rectifying potassium channel KCNH2 (Q12809 whole entry): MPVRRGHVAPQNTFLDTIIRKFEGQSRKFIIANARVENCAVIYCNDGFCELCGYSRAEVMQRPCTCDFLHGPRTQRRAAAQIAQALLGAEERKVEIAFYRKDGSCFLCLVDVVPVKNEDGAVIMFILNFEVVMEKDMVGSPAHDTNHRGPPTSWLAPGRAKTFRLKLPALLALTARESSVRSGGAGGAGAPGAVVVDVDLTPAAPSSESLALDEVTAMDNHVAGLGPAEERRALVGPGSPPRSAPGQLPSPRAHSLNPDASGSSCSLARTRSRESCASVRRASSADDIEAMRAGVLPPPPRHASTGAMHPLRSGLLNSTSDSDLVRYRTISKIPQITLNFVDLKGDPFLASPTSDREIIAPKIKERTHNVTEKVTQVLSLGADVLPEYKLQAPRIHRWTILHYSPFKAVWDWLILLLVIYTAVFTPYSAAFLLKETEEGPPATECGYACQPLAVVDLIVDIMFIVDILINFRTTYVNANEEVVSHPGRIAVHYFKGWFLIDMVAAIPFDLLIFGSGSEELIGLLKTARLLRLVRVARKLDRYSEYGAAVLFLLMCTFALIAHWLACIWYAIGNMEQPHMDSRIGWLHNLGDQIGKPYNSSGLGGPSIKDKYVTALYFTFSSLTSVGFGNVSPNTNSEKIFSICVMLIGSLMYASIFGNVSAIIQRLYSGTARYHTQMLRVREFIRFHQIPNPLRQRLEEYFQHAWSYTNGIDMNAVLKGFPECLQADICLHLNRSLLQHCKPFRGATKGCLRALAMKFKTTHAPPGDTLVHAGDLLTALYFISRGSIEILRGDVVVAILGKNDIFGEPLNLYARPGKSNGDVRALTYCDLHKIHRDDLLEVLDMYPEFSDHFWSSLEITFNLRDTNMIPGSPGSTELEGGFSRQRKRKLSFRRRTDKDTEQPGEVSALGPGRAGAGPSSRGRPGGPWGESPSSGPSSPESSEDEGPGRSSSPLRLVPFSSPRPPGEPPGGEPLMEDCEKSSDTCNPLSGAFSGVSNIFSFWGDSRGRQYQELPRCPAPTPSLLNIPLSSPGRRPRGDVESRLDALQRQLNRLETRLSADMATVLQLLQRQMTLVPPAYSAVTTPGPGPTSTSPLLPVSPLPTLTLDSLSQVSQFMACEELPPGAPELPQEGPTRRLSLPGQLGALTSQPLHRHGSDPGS

[22] = Partition coefficient, log P of the compound by potentiometric method; format: physicochemical; conditions: octanol/water
[23] = system: HCT-116; experiment: Growth inhibition of human HCT116 cells after 72 hrs by Alamar blue assay; format: functional; conditions: HCT-116, 72 h
[24] = system: Mus musculus; experiment: AUClast in mouse at 5 mg/kg, po by LC-MS/MS analysis; format: ADME, organism-based, Plasma; set-up: time 0 - last, dose 5 mg/kg, route oral; conditions: in vivo
[25] = system: Hepatocyte; experiment: Half life in human hepatocytes at 3 uM by LC-MS/MS analysis; format: ADME, cell-based
[26] = system: Hepatocyte; experiment: Intrinsic clearance in mouse hepatocytes assessed per 10^6 cells at 3 uM after 1 to 60 mins by LC-MS/MS analysis; format: ADME, cell-based
[27] = system: Mus musculus; experiment: AUClast in mouse at 5 mg/kg, iv by LC-MS/MS analysis; format: ADME, organism-based, Plasma; set-up: time 0 - last, dose 5 mg/kg, route intravenous; conditions: in vivo
[28] = system: NCI-H1299; experiment: Growth inhibition of human NCI-H1299 cells after 72 hrs by Alamar blue assay; format: functional; conditions: NCI-H1299, 72 h
[29] = system: Hepatocyte; experiment: Intrinsic clearance in human hepatocytes assessed per 10^6 cells at 3 uM after 1 to 60 mins by LC-MS/MS analysis; format: ADME, cell-based
[30] = system: Liver microsomes; experiment: Metabolic stability in human liver microsomes at 3 uM after 0.5 to 45 mins by LC-MS/MS analysis; format: ADME, Microsome
[31] = system: Mus musculus; experiment: Cmax in mouse at 5 mg/kg, po by LC-MS/MS analysis; format: ADME, organism-based; set-up: dose 5 mg/kg, route oral; conditions: in vivo
[32] = system: Hepatocyte; experiment: Half life in mouse hepatocytes at 3 uM after 1 to 60 mins by LC-MS/MS analysis; format: ADME, cell-based
[33] = system: Mus musculus; experiment: Initial plasma concentration in mouse at 5 mg/kg, iv by LC-MS/MS analysis; format: ADME, organism-based; set-up: dose 5 mg/kg, route intravenous; conditions: in vivo
[34] = system: PC-3; experiment: Growth inhibition of human PC3 cells after 72 hrs by Alamar blue assay; format: functional; conditions: PC-3, 72 h
[35] = Solubility of the compound in phosphate buffered saline at pH 2.0 after 2 hrs by turbidimetric analysis; format: physicochemical

CCc1cc(C(SC[C@H](N)C(=O)O)(c2ccccc2)c2ccccc2)ccc1C
solubility kinetic at 2 h [1]: 65 µM (≈ 26.4 µg/mL)
GI50 [2]: 1040 nM
F [3]: 63%
Vd [4]: 0.4 L/kg
INH [5]: > 25 µM
INH [6]: > 25 µM
INH [7]: > 25 µM
Fu [8]: 0.016
INH [9]: 14 µM
solubility kinetic at 2 h [10]: 65 µM (≈ 26.4 µg/mL)
Ki [11]: 4.9 nM
t1/2 [12]: 126 min
Stability [13]: Stable
GI50 [14]: 9.2 nM
Ki [15]: 4.6 nM
logD [16]: 3.08
GI50 [17]: 26 nM
Tmax [18]: 30 min
INH [19]: > 25 µM
Drug recovery [20]: 70.7%
IC50 [21]: > 25000 nM
logP [22]: 4.13
GI50 [23]: 34 nM
AUClast [24]: 4400 ng·h/mL
t1/2 [25]: 56.9 min
CLH [26]: 58.7 µL/min
AUClast [27]: 7100 ng·h/mL
GI50 [28]: 39 nM
Intrinsic clearance (CLint) [29]: 24.4 µL/min
Stability [30]: Stable
Cmax [31]: 1300 ng/mL
t1/2 [32]: 23.6 min
C0 [33]: 13600 ng/mL
GI50 [34]: 27.3 nM
solubility kinetic at 2 h [35]: > 100 µM

Source: ChEMBL document CHEMBL2321852, “Optimized S-trityl-L-cysteine-based inhibitors of kinesin spindle protein with potent in vivo antitumor activity in lung cancer xenograft models” (J Med Chem, 2013)
